Measurements from the SangsterLogP compilation.

settings: pH 7.4

Point of comparison: CCCCN1Cc2c(nc3cc(-c4ccco4)[nH]n3c2=O)C1=O, logD 0.8. Against it:
- CS(=O)(=O)c1cccc2c3c([nH]c12)CCN(C(=O)[C@@H]1CCCC[C@H]1C(=O)NC1(C#N)CC1)C3 — higher, 1.7
- COc1ccc2[nH]c3c(c2c1)CN(C(=O)[C@@H]1CCCC[C@H]1C(=O)NC1(C#N)CC1)CC3 — higher, 2.4
- C[C@@H]1CN(C(=O)OC(C)(C)C)CCN1c1ncc(OCC2CCN(S(C)(=O)=O)CC2)cn1 — higher, 3.5
- CCNC(=O)c1cc2c(-n3ccc(C(F)(F)F)n3)c(-c3cncc(C(=O)NC)c3)cnc2[nH]1 — higher, 2.21
- Fc1ccc(CN2CCN(C3=Nn4c(nnc4C(F)(F)F)CC3)CC2)cc1 — higher, 2.8
- C[C@H](C#N)NC(=O)[C@@H]1CCCC[C@H]1C(=O)N1CCc2[nH]c3ccc(F)cc3c2C1 — higher, 3.1
- N#CC1(NC(=O)[C@@H]2CCCC[C@H]2C(=O)N2CCc3oc4ccccc4c3C2)CC1 — higher, 3.01
- N#Cc1cnc(N2CCN(C(=O)[C@@H]3CCCC[C@H]3C(=O)NC3(C#N)CC3)CC2)s1 — higher, 1.2
- COc1cc(OC)c(S(=O)(=O)N2c3ccccc3CCC2C)cc1NC(C)=O (configuration not stated) — higher, 1.97
- CCNC(=O)c1cc2c(-n3ccc(C(F)(F)F)n3)c(-c3cncc(-c4n[nH]c(=O)o4)c3)cnc2[nH]1 — higher, 1.65
- CS(=O)(=O)C1(c2cc(N3CCOCC3)nc(-c3cccc4[nH]ccc34)n2)CC1 — higher, 2.2
- N#CC1(NC(=O)[C@@H]2CCCC[C@H]2C(=O)N2CCc3[nH]c4c(C(F)(F)F)cccc4c3C2)CC1 — higher, 3.75
- O=c1cc(O)c2c(=O)n(Cc3ccccc3)c3ccccc3c2o1 — higher, 1.97
- COc1cc(OC)c(S(=O)(=O)N2c3ccccc3CCC2C)cc1NC(=O)CSc1ccncc1 (configuration not stated) — higher, 2.82
- N#CCNC(=O)[C@@H]1CCCC[C@H]1C(=O)N1CCN(c2ccc(C#N)cc2)CC1 — higher, 1.79
- C[C@@H]1CN(C(=O)OC(C)(C)C)CCN1c1ncc(OCc2ccc(S(C)(=O)=O)cc2C#N)cn1 — higher, 3.3
- C[C@@H]1CN(C(=O)OC(C)(C)C)CCN1c1ncc(OCc2ccc(S(C)(=O)=O)cc2F)cn1 — higher, 3.7
- Cc1nc2nc(-c3cccnc3)[nH]n2c(=O)c1Cc1ccccc1 — higher, 1.52
- Cc1nc2nc(NC(=O)c3ccc(F)cc3)[nH]n2c(=O)c1Cc1ccccc1 — higher, 2.2
- COc1ccc(N2CCN(C(=O)[C@@H]3CCCC[C@H]3C(=O)NCC#N)CC2)cc1 — higher, 1.6
- Cc1cc(C(C)Nc2ccccc2)c2nc(N3CCOCC3)cc(=O)n2c1 (configuration not stated) — higher, 3.6
- CC(C)(C)OC(=O)N1CCN(c2ncc(OCc3ccc(S(C)(=O)=O)cc3)nn2)CC1 — higher, 2.93
- CC(C)c1ccc2[nH]c3c(c2c1)CN(C(=O)[C@@H]1CCCC[C@H]1C(=O)NC1(C#N)CC1)CC3 — higher, 4.1
- N#Cc1ccc(CN2CCN(c3ccc4nnc(C(F)(F)F)n4n3)CC2)cc1 — higher, 2.9
- COc1ccc(N(C(=O)c2ccccc2)C(C(=O)NC[C@@H](C)O)c2ccccc2F)c(OC)c1 (some centres not stated) — higher, 2.55
- COc1ccc(N2CCN(C(=O)[C@@H]3CCCC[C@H]3C(=O)NC3(C#N)CC3)[C@H](C)C2)nc1OC — higher, 2.3
- N#CC1(NC(=O)[C@@H]2CCCC[C@H]2C(=O)N2CCc3[nH]c4cc(F)ccc4c3C2)CC1 — higher, 2.99
- NS(=O)(=O)c1ccc(Nc2nccc(-c3cnc4ccccn34)n2)cc1 — higher, 2.7
- Cc1ncc(-c2ccnc(Nc3ccc(N4CCN(S(=O)(=O)CCN(C)C)CC4)cc3)n2)n1C(C)C — higher, 2.52
- N#CC1(NC(=O)[C@@H]2CCCC[C@H]2C(=O)N2CCc3[nH]c4ccc(Cl)cc4c3C2)CC1 — higher, 3.65
- Nc1ccccc1NC(=O)c1ccc(-c2ncc(CN3CCC3)cc2F)cc1 — higher, 1.69
- CC(C)c1nc(N2CCN(c3ncc(OCc4ccncc4C#N)cn3)[C@H](C)C2)no1 — higher, 3.3
- CC(C)(C)OC(=O)N1CCN(c2ncc(OCc3ccncc3F)cn2)CC1 — higher, 3.6
- COc1ccc(N(C(=O)c2occc2Cl)C(C(=O)NC[C@@H](C)O)c2ccccc2F)c(OC)c1 (some centres not stated) — higher, 2.18
- N#CC1(NC(=O)[C@@H]2CCCC[C@H]2C(=O)N2CCc3[nH]c4ccc(F)cc4c3C2)CC1 — higher, 3
- CN(C(=O)Cc1ccc(-n2cnnn2)cc1)[C@H]1CCN(Cc2ccc(C(F)(F)F)cc2)C[C@H]1F — higher, 3.3
- C[C@@H]1CN(c2noc(C3CC3)n2)CCN1c1ncc(OCc2ccncc2C#N)cn1 — higher, 3.1
- CS(=O)(=O)c1ccc2c3c([nH]c2c1)CCN(C(=O)[C@@H]1CCCC[C@H]1C(=O)NC1(C#N)CC1)C3 — higher, 1.5
- CC(=O)N1CCN(CCOc2ccc(C3(O)CCN(c4ccc5nnc(C(F)(F)F)n5n4)CC3)cc2)CC1 — higher, 2.2
- Cc1cc(COc2cnc(N3CCN(C(=O)OC(C)(C)C)CC3)nc2)ccn1 — higher, 3.7
- CS(=O)(=O)Cc1cc(N2CCOCC2)nc(-c2ccccc2)n1 — higher, 1.94
- CC(C)(C#N)c1cnc(N2CCN(C(=O)[C@@H]3CCCC[C@H]3C(=O)NC3(C#N)CC3)CC2)s1 — higher, 1.9
- COc1cc(N2CCN(C(=O)[C@@H]3CCCC[C@H]3C(=O)NC3(C#N)CC3)[C@H](C)C2)ccc1C1CC1 — higher, 3.49
- N#CC1(NC(=O)[C@@H]2CCCC[C@H]2C(=O)N2CCN(c3nc4ccncc4s3)CC2)CC1 — higher, 1.6
- COc1cnccc1COc1cnc(N2CCN(C(=O)OC(C)(C)C)CC2)nc1 — higher, 3.8
- N#CC1(NC(=O)[C@@H]2CCCC[C@H]2C(=O)N2CCN(c3nccs3)CC2)CC1 — higher, 1.3
- COc1ccc(N(C(=O)c2ccoc2Cl)C(C(=O)NC[C@@H](C)O)c2ccccc2F)c(OC)c1 (some centres not stated) — higher, 2.36
- CC(C)(C)OC(=O)N1CCN(c2ncc(OCc3ccncc3)cn2)CC1 — higher, 3.4
- CS(=O)(=O)Cc1cc(N2CCOCC2)nc(-c2cccc3[nH]ccc23)n1 — higher, 1.7
- C[C@H]1COCCN1c1cc(CS(C)(=O)=O)nc(-c2ccc3[nH]ccc3c2)n1 — higher, 2.38
- O=c1cc(O)c2c(=O)n(-c3ccccc3)c3ccccc3c2o1 — within 0.2 log units, 0.96
- CS(=O)(=O)Cc1cc(N2CCOCC2)nc(-c2ccc3[nH]ccc3c2)n1 — higher, 2.06
- O=c1cc(-c2ccccc2)nc2cc[nH]n12 — higher, 1.3
- C[C@@H]1CN(c2ccccc2)CCN1C(=O)[C@@H]1CCCC[C@H]1C(=O)NC1(C#N)CC1 — higher, 2.35
- N#CC1(NC(=O)[C@@H]2CCCC[C@H]2C(=O)N2CCc3[nH]c4cccc(F)c4c3C2)CC1 — higher, 3.2
- Cc1nc2nc[nH]n2c(=O)c1CCOC(=O)c1c(F)cccc1F — lower, 0.16
- C[C@H]1CN(C(=O)OC(C)(C)C)CCN1c1ncc(OCc2ccc(S(C)(=O)=O)cc2)cn1 — higher, 3.5
- Cc1ncc(-c2ccnc(Nc3ccc(S(=O)(=O)CCCN(C)C)cc3)n2)n1C(C)C — higher, 1.32
- COC1/C=C\OC2(C)Oc3c(C)c(O)c4c(c3C2=O)C(=O)C=C(NC(=O)/C(C)=C\C=C/C(C)C(O)C(C)C(O)C(C)C(OC(C)=O)C1C)C4=O (configuration not stated) — within 0.2 log units, 0.7
- CC(C)(C)c1cc2nc3c(c(=O)n2[nH]1)CN(Cc1ccccc1)C3=O — higher, 1.9
- N#CC1(NC(=O)[C@@H]2CCCC[C@H]2C(=O)N2CCc3[nH]c4ccc(C(F)(F)F)cc4c3C2)CC1 — higher, 4.2
- O=C(Nc1cccc2cccnc12)C1CCC(N2C(=O)[C@@H]3[C@@H]4CC[C@@H](C4)[C@@H]3C2=O)CC1 (some centres not stated) — higher, 3.94
- CC(C)(C)OC(=O)N1CCN(c2cnc(OCc3ccc(S(C)(=O)=O)cc3)cn2)CC1 — higher, 3.4
- Cc1nc2nc[nH]n2c(=O)c1CCOC(=O)c1ccccc1F — within 0.2 log units, 0.99
- CCOc1cccc2c3c([nH]c12)CCN(C(=O)[C@@H]1CCCC[C@H]1C(=O)NC1(C#N)CC1)C3 — higher, 3.1
- COc1cc(N2CC3COCC(C2)N3)ccc1Nc1ncc(Cl)c(-c2cnc3ccccn23)n1 — higher, 3
- Cc1ncc(-c2ccnc(Nc3ccc(N4CCOCC4)cc3)n2)n1C(C)C — higher, 2.88
- COc1ccc(N(C(=O)c2ccccc2)C(C(=O)NC2CCCC2)c2ccccc2F)c(OC)c1 (configuration not stated) — higher, 3.86
- Cc1ncc(-c2nc(Nc3ccc(N4CCN(C(=O)CO)CC4)cc3)ncc2F)n1C(C)C — higher, 2.19
- CCS(=O)(=O)c1ccc(-c2cc(C(F)(F)F)ccc2OCC(N)=O)c(C)c1 — higher, 2.77
- CC1(C)COCc2sc(N3CCN(C(=O)[C@@H]4CCCC[C@H]4C(=O)NC4(C#N)CC4)CC3)nc21 — higher, 2.4
- CC(C)Oc1cc(OCCN2CCOCC2)cc2ncnc(Nc3c(Cl)ccc4c3OCO4)c12 — higher, 3.68
- CS(=O)(=O)c1ccc2nc(N3CCN(C(=O)[C@@H]4CCCC[C@H]4C(=O)NC4(C#N)CC4)CC3)sc2c1 — higher, 1.49
- Cc1ncc(-c2ccnc(Nc3ccc(N4CCN(S(C)(=O)=O)CC4)cc3)n2)n1C(C)C — higher, 2.57
- C[C@@H]1CN(c2nc(C(F)(F)F)no2)CCN1c1ncc(OCc2ccncc2C#N)cn1 — higher, 3.1
- C[C@@H]1CN(c2ncc(F)cn2)CCN1c1ncc(OCc2ccncc2C#N)cn1 — higher, 3.4
- N#CC1(NC(=O)[C@@H]2CCCC[C@H]2C(=O)N2CCN(c3nc(-c4ccccc4)cs3)CC2)CC1 — higher, 3.5
- Nc1ccccc1NC(=O)c1ccc(N2CCOCC2)cc1 — higher, 1.2
- CC(C)(C)OC(=O)N1CCN(c2ccc(OCc3ccc(S(C)(=O)=O)cc3)nn2)CC1 — higher, 2.8
- Cc1ncc(-c2nc(Nc3ccc(N4CCOCC4)cc3)ncc2F)n1C(C)C — higher, 3.01
- Cc1nnc(C)c2cc(N3CCN(C(=O)[C@@H]4CCCC[C@H]4C(=O)NC4(C#N)CC4)[C@H](C)C3)ccc12 — higher, 1.93
- COc1cc(OC)c(S(=O)(=O)NCc2ccccc2N2CCC(CO)CC2)cc1NC(C)=O — higher, 1.03
- CC(C)(C)OC(=O)N1C[C@@H]2CC[C@H]1CN2c1ncc(OCc2ccc(S(C)(=O)=O)cc2)cn1 — higher, 3.4
- Cc1sc(N2CCN(C(=O)[C@@H]3CCCC[C@H]3C(=O)NC3(C#N)CC3)CC2)nc1C(F)(F)F — higher, 2.87
- Cc1noc2cc(N3CCN(C(=O)[C@@H]4CCCC[C@H]4C(=O)NC4(C#N)CC4)[C@H](C)C3)ccc12 — higher, 2.67
- CS(=O)(=O)Cc1cc(N2CCOCC2)nc(-c2ccc(NS(C)(=O)=O)cc2)n1 — within 0.2 log units, 0.85
- COc1c/c(=C2\C=c3ccccc3=N2)[nH]/c1=C\c1[nH]c(C)cc1C — higher, 2.55
- CS(=O)(=O)c1ccc(N2CCN(C(=O)[C@@H]3CCCC[C@H]3C(=O)NCC#N)CC2)cc1 — within 0.2 log units, 0.67
- Cc1nn(C)c2cc(N3CCN(C(=O)[C@@H]4CCCC[C@H]4C(=O)NC4(C#N)CC4)[C@H](C)C3)ccc12 — higher, 2.7
- N#CC1(NC(=O)[C@@H]2CCCC[C@H]2C(=O)N2CCc3[nH]c4c(OC(F)(F)F)cccc4c3C2)CC1 — higher, 4.01
- C[C@H]1O[C@@H](n2cnc3c(N)nc(O[C@H]4CC[C@H](C)CC4)nc32)[C@H](O)[C@@H]1O — higher, 2.35
